Experimental data reported in patent US8716324B2, “Tricyclic indeno-pyrrole derivatives as serotonin receptor modulators” (Athersys, Inc., priority 2004, dated 2014).

Target: human 5HT2c receptor (VSV Isoform) (Homo sapiens, UniProt P28335, I156V/I160V/N158S)
Experiment: cell-based
Settings: 5-HT2c EC50 (hVSV, μM)

Chain of human 5HT2c receptor (VSV Isoform) (P28335 33-458 I156V/N158S/I160V limits assumed): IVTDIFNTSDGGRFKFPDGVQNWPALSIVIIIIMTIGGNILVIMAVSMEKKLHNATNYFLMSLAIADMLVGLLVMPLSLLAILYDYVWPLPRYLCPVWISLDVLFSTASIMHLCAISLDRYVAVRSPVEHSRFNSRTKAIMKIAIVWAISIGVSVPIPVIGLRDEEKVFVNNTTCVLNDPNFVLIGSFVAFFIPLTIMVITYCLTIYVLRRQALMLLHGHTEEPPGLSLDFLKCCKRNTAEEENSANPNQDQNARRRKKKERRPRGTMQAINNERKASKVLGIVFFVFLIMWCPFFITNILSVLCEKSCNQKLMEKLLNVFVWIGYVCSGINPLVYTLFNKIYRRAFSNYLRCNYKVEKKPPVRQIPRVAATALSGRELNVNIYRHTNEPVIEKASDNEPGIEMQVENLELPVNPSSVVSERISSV

Row | SMILES | EC50
1 | CC1c2cc(Cl)cc(Cl)c2C2CNCC12 (centres unmarked) [Example 28, 4,6-Dichloro-8-methyl-1,2,3,3a,8,8a-hexahydroindeno[1,2-c]pyrrole] | < 0.1 µM
2 | COc1c(Cl)cc2c(c1Cl)C1CNCC1C2C (centres unmarked) [Example 38, 4,6-Dichloro-5-Methoxy-8-methyl-1,2,3,3a,8,8a-hexahydroindeno[1,2-c]pyrrole] | < 0.1 µM
3 | CC1c2cc(Cl)c(OCC3CC3)cc2C2CNCC12 (centres unmarked) [Example 39, 5-Cyclopropylmethoxy-6-chloro-8-methyl-1,2,3,3a,8,8a-hexahydroindeno[1,2-c]pyrrole] | < 1 µM
4 | CC1c2ccc(OC(F)(F)F)cc2C2CNCC12 (centres unmarked) [Example 40, 5-Trifluoromethoxy-8-methyl-1,2,3,3a,8,8a-hexahydroindeno[1,2-c]pyrrole] | > 10 µM
5 | CCC1c2ccc(OC)cc2C2CNCC12 (centres unmarked) [Example 48, 5-Methoxy-8-ethyl-1,2,3,3a,8,8a-hexahydroindeno[1,2-c]pyrrole] | > 10 µM
6 | COc1cc2c(cc1Cl)C(=O)C1CNCC21 (centres unmarked) [Example 53, 5-Methoxy-6-chloro-2,3,3a,8a-tetrahydro-1H-2-aza-cyclopenta[a]inden-8-one] | < 1 µM
7 | COc1ccc2c(c1Cl)C1CNCC1C2O (centres unmarked) [Example 54, 4-Chloro-5-methoxy-2,3,3a,8a-tetrahydro-1H-2-aza-cyclopenta[a]inden-8-ol] | < 1 µM
8 | COc1cc2c(cc1Cl)C(O)C1CNCC21 (centres unmarked) [Example 55, 5-Methoxy-6-chloro-2,3,3a,8a-tetrahydro-1H-2-aza-cyclopenta[a]inden-8-ol] | < 10 µM
